Results as given in patent publication US20220187282A1, “CARDIOMYOCYTE PROLIFERATION” (The Council of the Queensland Institute of Medical Research, priority 2019, published 2022).
Read-outs that look alike come from different tables or passages of the source.

Experiments:
Type in all cases: biochemical
[1] = molecular target: kinases (Homo sapiens, UniProt P49674); settings: CSNK1E (CK1 epsilon) Z-Lyte SP; Test Conc(μM):ATP Conc(μM) 1:5
[2] = molecular target: kinases (Homo sapiens, UniProt Q07002); settings: CDK18/cyclin Y FRET-Z-Lyte SP; Test Conc(μM):ATP Conc(μM) 1:75
[3] = molecular target: kinases (Homo sapiens, UniProt P36507)
[4] = molecular target: kinases (Homo sapiens, UniProt Q15208); settings: STK38 FRET-Lantha SP; Test Conc(μM) 1
[5] = molecular target: kinases (Homo sapiens, UniProt P41279); settings: MAP3K8 (COT) Cascade Z-Lyte SP; Test Conc(μM):ATP Conc(μM) 1:100
[6] = molecular target: kinases (Homo sapiens, UniProt Q8N4C8); settings: MINK1 FRET-Z-Lyte SP; Test Conc(μM):ATP Conc(μM) 1:25
[7] = molecular target: kinases (Homo sapiens, UniProt Q9Y572); settings: RIPK3 FRET-Lantha SP; Test Conc(μM) 1
[8] = molecular target: kinases (Homo sapiens, UniProt Q99558); settings: MAP3K14 (NIK) FRET-Lantha SP; Test Conc(μM) 1
[9] = molecular target: kinases (Homo sapiens, UniProt P04626); settings: ERBB2 (HER2) *Mn* Z-Lyte SP; Test Conc(μM):ATP Conc(μM) 1:10
[10] = molecular target: kinases (Homo sapiens, UniProt Q32MK0); settings: MYLK3 Hu Bind FRET-Lantha SP; Test Conc(μM) 1
[11] = molecular target: kinases (Homo sapiens, UniProt P54756); settings: EPHA5 FRET-Z-Lyte SP; Test Conc(μM):ATP Conc(μM) 1:150
[12] = molecular target: kinases (Homo sapiens, UniProt P27448); settings: MARK3 FRET-Z-Lyte SP; Test Conc(μM):ATP Conc(μM) 1:5
[13] = molecular target: kinases (Homo sapiens, UniProt P53667); settings: LIMK1 FRET-Lantha SP; Test Conc(μM) 1
[14] = molecular target: kinases (Homo sapiens, UniProt Q8IVH8); settings: MAP4K3 (GLK) FRET-Lantha SP; Test Conc(μM) 1
[15] = molecular target: kinases (Homo sapiens, UniProt P51817); settings: PRKX FRET-Z-Lyte SP; Test Conc(μM):ATP Conc(μM) 1:10
[16] = molecular target: kinases (Homo sapiens, UniProt P51957); settings: NEK4 FRET-Z-Lyte SP; Test Conc(μM):ATP Conc(μM) 1:50
[17] = molecular target: kinases (Homo sapiens, UniProt O00141); settings: SGK (SGK1) FRET-Z-Lyte SP; Test Conc(μM):ATP Conc(μM) 1:25
[18] = molecular target: kinases (Homo sapiens, UniProt Q13043); settings: STK4 (MST1) FRET-Z-Lyte SP; Test Conc(μM):ATP Conc(μM) 1:50
[19] = molecular target: kinases (Homo sapiens, UniProt P42685); settings: FRK (PTK5) FRET-Z-Lyte SP; Test Conc(μM):ATP Conc(μM) 1:50
[20] = molecular target: kinases (Homo sapiens, UniProt Q9UKE5); settings: TNIK FRET-Lantha SP; Test Conc(μM) 1
[21] = molecular target: kinases (Homo sapiens, UniProt Q96GD4); settings: AURKB (Aurora B) Z-Lyte SP; Test Conc(μM):ATP Conc(μM) 1:75
[22] = molecular target: kinases (Homo sapiens, UniProt Q5TCX8); settings: MLK4 FRET-Lantha SP; Test Conc(μM) 1
[23] = molecular target: kinases (Homo sapiens, UniProt Q13188); settings: STK3 (MST2) FRET-Z-Lyte SP; Test Conc(μM):ATP Conc(μM) 1:50
[24] = molecular target: kinases (Homo sapiens, UniProt Q96L34); settings: MARK4 FRET-Z-Lyte SP; Test Conc(μM):ATP Conc(μM) 1:10
[25] = molecular target: kinases (Homo sapiens, UniProt P29322); settings: EPHA8 FRET-Z-Lyte SP; Test Conc(μM):ATP Conc(μM) 1:100
[26] = molecular target: kinases (Homo sapiens, UniProt Q9NWZ3); settings: IRAK4 *Mn* FRET-Z-Lyte SP; Test Conc(μM):ATP Conc(μM) 1:25
[27] = molecular target: kinases (Homo sapiens, UniProt Q9HC98); settings: NEK6 FRET-Z-Lyte SP; Test Conc(μM):ATP Conc(μM) 1:100
[28] = MAP2K2 (MEK2) FRET-Lantha SP, Test Conc(μM) 1
[29] = MAP2K2 (MEK2)Cascade Z-Lyte SP, Test Conc(μM):ATP Conc(μM) 1:100

kinases (Homo sapiens, UniProt P36507), sequence (P36507 whole entry): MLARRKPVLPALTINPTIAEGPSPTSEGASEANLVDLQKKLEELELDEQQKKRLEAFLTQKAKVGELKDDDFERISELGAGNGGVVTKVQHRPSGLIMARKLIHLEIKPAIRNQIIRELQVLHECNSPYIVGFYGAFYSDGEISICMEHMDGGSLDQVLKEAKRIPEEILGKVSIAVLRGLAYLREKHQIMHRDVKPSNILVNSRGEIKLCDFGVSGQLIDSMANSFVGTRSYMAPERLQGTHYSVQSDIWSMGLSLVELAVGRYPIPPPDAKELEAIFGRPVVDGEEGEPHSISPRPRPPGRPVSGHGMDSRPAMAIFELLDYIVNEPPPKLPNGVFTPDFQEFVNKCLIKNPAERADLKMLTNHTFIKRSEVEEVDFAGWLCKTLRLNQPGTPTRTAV
kinases (Homo sapiens, UniProt P51957), sequence (P51957 whole entry): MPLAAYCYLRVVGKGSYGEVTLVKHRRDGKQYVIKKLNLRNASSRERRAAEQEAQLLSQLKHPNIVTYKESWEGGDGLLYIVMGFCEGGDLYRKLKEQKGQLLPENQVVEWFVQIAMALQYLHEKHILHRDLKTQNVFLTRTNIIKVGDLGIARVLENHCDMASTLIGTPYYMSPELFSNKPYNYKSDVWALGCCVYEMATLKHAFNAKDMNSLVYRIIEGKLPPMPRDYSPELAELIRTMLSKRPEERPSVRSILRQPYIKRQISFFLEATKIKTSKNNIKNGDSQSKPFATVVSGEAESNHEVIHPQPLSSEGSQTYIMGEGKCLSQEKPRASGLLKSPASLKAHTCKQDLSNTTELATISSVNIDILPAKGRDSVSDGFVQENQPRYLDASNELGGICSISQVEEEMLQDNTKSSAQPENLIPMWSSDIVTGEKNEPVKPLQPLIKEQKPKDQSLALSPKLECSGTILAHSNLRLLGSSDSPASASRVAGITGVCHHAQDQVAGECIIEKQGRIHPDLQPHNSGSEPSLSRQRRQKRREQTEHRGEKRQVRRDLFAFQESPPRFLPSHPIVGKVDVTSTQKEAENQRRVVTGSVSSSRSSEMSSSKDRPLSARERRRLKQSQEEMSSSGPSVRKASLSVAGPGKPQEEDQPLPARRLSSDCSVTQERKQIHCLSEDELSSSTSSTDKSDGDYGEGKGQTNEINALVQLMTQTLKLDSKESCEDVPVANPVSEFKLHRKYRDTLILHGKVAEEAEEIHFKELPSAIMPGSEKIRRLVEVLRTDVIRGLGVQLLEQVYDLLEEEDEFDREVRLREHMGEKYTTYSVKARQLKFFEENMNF
kinases (Homo sapiens, UniProt P51817), sequence (P51817 whole entry): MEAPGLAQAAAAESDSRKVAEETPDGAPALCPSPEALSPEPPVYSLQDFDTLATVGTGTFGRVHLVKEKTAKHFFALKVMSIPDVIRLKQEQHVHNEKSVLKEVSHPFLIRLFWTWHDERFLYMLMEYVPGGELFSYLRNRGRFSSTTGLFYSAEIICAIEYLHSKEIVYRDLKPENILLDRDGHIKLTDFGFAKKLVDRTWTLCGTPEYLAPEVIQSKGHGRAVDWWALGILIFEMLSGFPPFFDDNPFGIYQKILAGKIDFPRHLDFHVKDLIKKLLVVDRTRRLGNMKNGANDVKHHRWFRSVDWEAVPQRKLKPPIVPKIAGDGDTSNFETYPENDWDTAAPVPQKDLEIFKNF
kinases (Homo sapiens, UniProt Q8IVH8), sequence (Q8IVH8 whole entry): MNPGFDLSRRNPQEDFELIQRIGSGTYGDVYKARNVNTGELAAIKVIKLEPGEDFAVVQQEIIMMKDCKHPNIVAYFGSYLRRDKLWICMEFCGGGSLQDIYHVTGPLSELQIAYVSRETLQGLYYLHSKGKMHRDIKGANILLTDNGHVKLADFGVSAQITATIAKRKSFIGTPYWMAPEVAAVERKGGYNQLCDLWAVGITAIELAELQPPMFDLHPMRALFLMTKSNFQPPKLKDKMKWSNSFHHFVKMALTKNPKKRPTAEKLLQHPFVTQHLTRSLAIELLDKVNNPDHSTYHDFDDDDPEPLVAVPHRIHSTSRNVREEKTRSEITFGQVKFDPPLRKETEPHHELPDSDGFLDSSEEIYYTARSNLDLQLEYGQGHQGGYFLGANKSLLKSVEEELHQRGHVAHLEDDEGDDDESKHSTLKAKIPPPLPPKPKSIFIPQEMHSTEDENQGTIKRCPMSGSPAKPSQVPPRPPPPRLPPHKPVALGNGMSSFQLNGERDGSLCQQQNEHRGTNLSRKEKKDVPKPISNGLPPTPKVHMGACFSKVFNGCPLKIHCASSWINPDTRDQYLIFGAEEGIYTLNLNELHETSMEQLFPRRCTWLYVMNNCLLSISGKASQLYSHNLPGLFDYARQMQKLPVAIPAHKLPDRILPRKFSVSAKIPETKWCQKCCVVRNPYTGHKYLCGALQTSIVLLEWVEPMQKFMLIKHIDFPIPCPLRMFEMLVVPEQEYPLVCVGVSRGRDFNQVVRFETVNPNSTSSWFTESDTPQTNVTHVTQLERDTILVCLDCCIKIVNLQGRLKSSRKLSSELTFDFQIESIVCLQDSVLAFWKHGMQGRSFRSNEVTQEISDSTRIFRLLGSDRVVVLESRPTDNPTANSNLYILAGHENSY
kinases (Homo sapiens, UniProt Q9Y572), sequence (Q9Y572 whole entry): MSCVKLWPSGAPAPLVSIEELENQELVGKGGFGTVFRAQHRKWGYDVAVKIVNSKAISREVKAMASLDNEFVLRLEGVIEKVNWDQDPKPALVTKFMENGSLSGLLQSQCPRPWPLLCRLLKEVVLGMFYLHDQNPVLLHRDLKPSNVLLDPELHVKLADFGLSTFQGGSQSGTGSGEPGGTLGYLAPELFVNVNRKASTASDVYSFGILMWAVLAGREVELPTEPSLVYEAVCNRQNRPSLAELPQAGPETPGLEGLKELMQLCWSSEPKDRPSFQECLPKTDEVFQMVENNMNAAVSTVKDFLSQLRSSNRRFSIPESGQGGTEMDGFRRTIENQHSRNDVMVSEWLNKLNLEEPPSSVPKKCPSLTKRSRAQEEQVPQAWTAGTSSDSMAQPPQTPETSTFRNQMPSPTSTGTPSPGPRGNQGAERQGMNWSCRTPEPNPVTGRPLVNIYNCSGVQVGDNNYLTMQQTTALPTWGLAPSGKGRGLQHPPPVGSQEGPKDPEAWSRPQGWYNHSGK
kinases (Homo sapiens, UniProt Q9UKE5), sequence (Q9UKE5 whole entry): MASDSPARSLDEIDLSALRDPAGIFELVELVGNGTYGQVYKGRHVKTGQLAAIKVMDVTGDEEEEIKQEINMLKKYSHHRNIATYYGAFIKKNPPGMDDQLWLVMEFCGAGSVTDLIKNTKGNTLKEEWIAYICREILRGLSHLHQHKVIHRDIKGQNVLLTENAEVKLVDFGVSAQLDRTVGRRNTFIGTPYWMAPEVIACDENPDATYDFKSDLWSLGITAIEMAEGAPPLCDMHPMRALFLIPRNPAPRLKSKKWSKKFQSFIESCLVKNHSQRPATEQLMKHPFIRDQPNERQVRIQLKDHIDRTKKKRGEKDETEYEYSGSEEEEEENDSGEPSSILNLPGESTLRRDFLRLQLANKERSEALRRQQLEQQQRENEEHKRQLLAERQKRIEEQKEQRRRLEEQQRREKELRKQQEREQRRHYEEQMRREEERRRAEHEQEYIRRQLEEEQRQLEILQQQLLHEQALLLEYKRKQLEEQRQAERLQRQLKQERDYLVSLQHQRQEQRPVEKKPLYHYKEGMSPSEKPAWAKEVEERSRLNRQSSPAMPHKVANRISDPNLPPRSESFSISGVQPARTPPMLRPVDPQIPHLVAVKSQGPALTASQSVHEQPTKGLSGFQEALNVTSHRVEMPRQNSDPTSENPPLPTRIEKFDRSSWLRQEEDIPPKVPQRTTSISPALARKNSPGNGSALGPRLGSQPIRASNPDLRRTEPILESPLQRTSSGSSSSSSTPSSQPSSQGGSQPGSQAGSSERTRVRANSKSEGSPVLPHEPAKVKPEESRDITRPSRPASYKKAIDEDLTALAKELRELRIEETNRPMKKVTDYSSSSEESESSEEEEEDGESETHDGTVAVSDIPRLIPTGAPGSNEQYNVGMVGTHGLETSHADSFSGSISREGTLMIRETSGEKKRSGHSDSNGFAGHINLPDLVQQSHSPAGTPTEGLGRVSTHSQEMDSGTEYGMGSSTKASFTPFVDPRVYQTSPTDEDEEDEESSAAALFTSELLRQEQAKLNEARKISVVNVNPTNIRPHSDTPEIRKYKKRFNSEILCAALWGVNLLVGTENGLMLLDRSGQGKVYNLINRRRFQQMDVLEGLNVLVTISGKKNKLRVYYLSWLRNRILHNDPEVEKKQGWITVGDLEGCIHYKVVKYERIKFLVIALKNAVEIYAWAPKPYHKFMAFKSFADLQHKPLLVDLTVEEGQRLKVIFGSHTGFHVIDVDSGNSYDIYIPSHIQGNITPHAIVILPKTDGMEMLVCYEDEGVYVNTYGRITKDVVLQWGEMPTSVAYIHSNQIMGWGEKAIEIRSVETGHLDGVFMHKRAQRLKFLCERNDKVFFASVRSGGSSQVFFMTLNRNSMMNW
kinases (Homo sapiens, UniProt Q15208), sequence (Q15208 whole entry): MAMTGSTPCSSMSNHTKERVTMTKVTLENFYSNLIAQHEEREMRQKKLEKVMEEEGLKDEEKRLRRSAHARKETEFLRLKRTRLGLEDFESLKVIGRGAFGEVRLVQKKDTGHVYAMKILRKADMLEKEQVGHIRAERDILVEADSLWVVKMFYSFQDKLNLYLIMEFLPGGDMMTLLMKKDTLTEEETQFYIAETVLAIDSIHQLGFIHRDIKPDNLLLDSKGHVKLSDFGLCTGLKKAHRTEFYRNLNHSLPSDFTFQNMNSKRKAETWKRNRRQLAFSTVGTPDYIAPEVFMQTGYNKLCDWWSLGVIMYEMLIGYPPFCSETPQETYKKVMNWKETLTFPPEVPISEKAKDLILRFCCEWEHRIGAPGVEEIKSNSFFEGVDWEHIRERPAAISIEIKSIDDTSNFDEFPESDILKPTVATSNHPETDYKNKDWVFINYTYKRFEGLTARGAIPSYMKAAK

| SMILES | Mean Inhib (%) [1] [%] | Mean Inhib (%) [2] [%] | Mean Inhib (%) [3, 28] [%] | Mean Inhib (%) [3, 29] [%] | Mean Inhib (%) [4] [%] | Mean Inhib (%) [5] [%] | Mean Inhib (%) [6] [%] | Mean Inhib (%) [7] [%] | Mean Inhib (%) [8] [%] | Mean Inhib (%) [9] [%] | Mean Inhib (%) [10] [%] | Mean Inhib (%) [11] [%] | Mean Inhib (%) [12] [%] | Mean Inhib (%) [13] [%] | Mean Inhib (%) [14] [%] | Mean Inhib (%) [15] [%] | Mean Inhib (%) [16] [%] | Mean Inhib (%) [17] [%] | Mean Inhib (%) [18] [%] | Mean Inhib (%) [19] [%] | further results |
| --- | --- | --- | --- | --- | --- | --- | --- | --- | --- | --- | --- | --- | --- | --- | --- | --- | --- | --- | --- | --- | --- |
| Cc1ccc(NC(=O)c2ccnc(N3CCOCC3)c2)cc1Nc1ccnc(N2CC(C)OC(C)C2)n1 (centres unmarked) [compound 3] | 5.8 | 2.7 | 1.7 | −1.0 | −9.2 | 6.1 | 1.6 | 20.9 | −1.3 | 2.7 | 4.5 | 6.7 | 8.9 | 2.2 | 7.7 | −3.2 | 14.2 | −7.0 | −3.1 | 5.7 | Mean Inhib (%) [20]: 4.1%; Mean Inhib (%) [21]: 4.9%; Mean Inhib (%) [22]: −1.5%; Mean Inhib (%) [23]: 6.9%; Mean Inhib (%) [24]: 0.2%; Mean Inhib (%) [25]: 8.6%; Mean Inhib (%) [26]: 12.7%; Mean Inhib (%) [27]: −4.0% |
| Cc1cc(Oc2ccnc(Nc3ccc(S(N)(=O)=O)cc3)c2)c(-c2ccccn2)nc1C [compound 65] | 2.8 | 1.2 | −0.2 | 10.4 | 3.1 | 21.2 | 19.9 | 76.6 | 4.9 | 10.1 | 0.8 | 65.2 | 4.7 | 1.8 | 14.0 | 1.8 | 3.6 | −1.4 | 8.7 | 60.1 | Mean Inhib (%) [20]: 58.4%; Mean Inhib (%) [21]: 2.7%; Mean Inhib (%) [22]: 1.9%; Mean Inhib (%) [23]: 1.1%; Mean Inhib (%) [24]: 1.4%; Mean Inhib (%) [25]: 64.7%; Mean Inhib (%) [26]: 6.8%; Mean Inhib (%) [27]: 8.2% |
